# Test system: Caki-1 cells
# Assay: Annexin V/PI apoptosis assay
# Type: cell-based, human
# Conditions: Caki-1, 6 hours incubation, 10 μM
# Procedure: To gain insight concerning the type of cell death that is induced in cancer cell lines, apoptosis assays were performed with Caki-1 cells with compound 2 dissolved in 1% DMSO solution in media. A 1% solution in media (FIG. 7) and staurosporine (FIG. 8) were used as controls. In early stages of apoptosis, one of the significant biochemical features is loss of plasma membrane phospholipid asymmetry due to translocation of phosphatidylserine (PS) from cytoplasmic to extracellular side. This characteristic allows detection of externalized PS by the specific binding of Annexin V (FITC-conjugated). Initiation of cell death will eventually result in the permeabilization of the cell membrane, allowing Pi to stain DNA within the nucleus. […] After incubation during 6 hours with 10 μM of compound 2 necrosis can be clearly proposed.
# Annexin V/PI assay: Confluent Caki-1 cells were treated with either […], 0.1% DMSO or 5 μM of staurosporine for 6 h. […] Stained cells were analyzed by flow cytometry using Accuri C6 software (BD Biosciences, San Jose, Calif., USA).
substance,measurement,value
[(η-C5H5)2TiMe(μ-mba)Au(PPh3)] [Compound 2],type of cell death induced,necrosis

# Source: US9315531B2, “Titanocene-gold derivatives comprising thiolato ligands” (Research Foundation of the City University of New York, priority 2014, dated 2016)
